Measurements from article PMC4932540, “Development of a New Radiofluorinated Quinoline Analog for PET Imaging of Phosphodiesterase 5 (PDE5) in Brain” (Pharmaceuticals, 2016).

Molecular target: T1, PDE5A1 (Homo sapiens, UniProt O76074)
T1 construct: gene PDE5A; human recombinant PDE5A1 protein
Assay: cAMP/cGMP-based PDE enzyme assay, recombinant protein
Type: biochemical

CCc1cc(C#N)cc2c(NCc3ccc(OC)c(Cl)c3)c(COCCF)cnc12 [ICF24027, 4-[(3-Chloro-4-methoxybenzyl)amino]-8-ethyl-3-[(2-fluoroethoxy)methyl]quinoline-6-carbonitrile]
IC50: 1.86 nM
